Data set [1] has as its target Tyrosine-protein kinase Fyn (Homo sapiens, UniProt P06241). The experiment in a line: biochemical. The format is cell-based, Insect cells.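 Also: enzymatic inhibition of Fyn kinase activity measured with Poly(Glu:Tyr) as the phosphorylation substrate; in other assays of this panel Not Active means under 50% inhibition at 10 µM.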
The target of another data set is Cytochrome P450 2E1 (Homo sapiens, UniProt P05181). The following applies: bti-tn-5b1-4. Also: in other assays of this panel Not Active means under 50% inhibition at 10 µM.
Chain of Cytochrome P450 2E1 (P05181 whole entry): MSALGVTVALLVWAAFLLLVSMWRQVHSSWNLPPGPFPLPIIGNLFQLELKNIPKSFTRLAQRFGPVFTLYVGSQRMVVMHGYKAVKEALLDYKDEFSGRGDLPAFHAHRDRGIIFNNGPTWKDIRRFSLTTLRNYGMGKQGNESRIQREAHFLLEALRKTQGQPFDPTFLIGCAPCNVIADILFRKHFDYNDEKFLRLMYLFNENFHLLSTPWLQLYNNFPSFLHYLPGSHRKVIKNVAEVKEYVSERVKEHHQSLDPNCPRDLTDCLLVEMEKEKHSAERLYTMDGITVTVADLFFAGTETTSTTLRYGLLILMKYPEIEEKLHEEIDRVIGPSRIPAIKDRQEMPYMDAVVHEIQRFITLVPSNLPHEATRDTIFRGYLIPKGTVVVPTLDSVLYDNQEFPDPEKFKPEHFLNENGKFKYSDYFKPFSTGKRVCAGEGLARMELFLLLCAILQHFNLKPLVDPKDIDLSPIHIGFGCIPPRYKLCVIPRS
Data set [2] has as its target Tyrosine-protein kinase Lck (Homo sapiens, UniProt P06239). Kind of data set: DRUGMATRIX: Protein Tyrosine Kinase, LCK enzyme inhibition (substrate: Poly(Glu:Tyr)). The format is cell-based, Insect cells. The following applies: Not Active = under 50% inhibition at 10 µM.
Data set [3] can be described thus: DRUGMATRIX: Phosphodiesterase PDE3 enzyme inhibition (substrate: [3H]cAMP + cAMP). The data set is classed as tissue-based, Homo sapiens. To be noted: platelet, Not Active = under 50% inhibition at 10 µM.
The next data set addresses T1, B2 bradykinin receptor (Homo sapiens, UniProt P30411).
T1 sequence (P30411 whole entry): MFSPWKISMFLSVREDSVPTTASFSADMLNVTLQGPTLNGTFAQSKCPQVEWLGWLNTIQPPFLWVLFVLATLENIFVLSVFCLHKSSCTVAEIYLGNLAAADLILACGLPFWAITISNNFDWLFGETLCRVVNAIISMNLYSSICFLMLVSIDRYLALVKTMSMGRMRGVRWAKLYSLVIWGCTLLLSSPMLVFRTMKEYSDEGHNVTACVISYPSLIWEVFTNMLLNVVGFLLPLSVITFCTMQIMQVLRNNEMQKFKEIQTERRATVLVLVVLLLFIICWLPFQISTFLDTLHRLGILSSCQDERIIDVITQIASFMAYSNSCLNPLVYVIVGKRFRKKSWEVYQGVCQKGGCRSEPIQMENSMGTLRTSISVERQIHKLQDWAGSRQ
The data set is classed as cell membranes, Membrane. The following applies: chem-1.

The nature of data set [4]: DRUGMATRIX: Nicotinic Acetylcholine radioligand binding (ligand: [125I] Epibatidine). The data set is classed as cell membranes, Membrane. The following applies: imr-32; Not Active = under 50% inhibition at 10 µM.
Data set [5] can be described thus: DRUGMATRIX: Tumor Necrosis Factor (TNF), Non-Selective radioligand binding (ligand: [125I] TNF-alpha). The data set is classed as cell membranes, Membrane. The following applies: u-937; Not Active = under 50% inhibition at 10 µM.

In ChEMBL document CHEMBL1909046, “DrugMatrix in vitro pharmacology data” one finds IC50 and Ki data, which are given here for 17 molecules.

The IC50 is the concentration needed to halve the response being measured.

Chain of Tyrosine-protein kinase Lck (P06239 whole entry): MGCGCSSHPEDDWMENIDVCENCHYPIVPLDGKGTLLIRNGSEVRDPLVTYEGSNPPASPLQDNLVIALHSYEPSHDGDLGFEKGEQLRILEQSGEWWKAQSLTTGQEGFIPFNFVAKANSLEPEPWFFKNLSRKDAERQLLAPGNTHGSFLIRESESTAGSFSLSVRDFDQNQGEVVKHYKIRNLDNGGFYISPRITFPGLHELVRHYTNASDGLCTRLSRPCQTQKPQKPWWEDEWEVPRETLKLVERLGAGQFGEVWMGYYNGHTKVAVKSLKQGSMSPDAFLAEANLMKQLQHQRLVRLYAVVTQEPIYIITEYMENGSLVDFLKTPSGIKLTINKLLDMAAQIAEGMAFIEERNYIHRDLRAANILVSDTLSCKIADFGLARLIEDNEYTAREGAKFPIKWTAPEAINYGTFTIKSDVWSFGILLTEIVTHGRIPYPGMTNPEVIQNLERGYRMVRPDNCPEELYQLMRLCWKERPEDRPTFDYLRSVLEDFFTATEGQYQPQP
Chain of Tyrosine-protein kinase Fyn (P06241 whole entry): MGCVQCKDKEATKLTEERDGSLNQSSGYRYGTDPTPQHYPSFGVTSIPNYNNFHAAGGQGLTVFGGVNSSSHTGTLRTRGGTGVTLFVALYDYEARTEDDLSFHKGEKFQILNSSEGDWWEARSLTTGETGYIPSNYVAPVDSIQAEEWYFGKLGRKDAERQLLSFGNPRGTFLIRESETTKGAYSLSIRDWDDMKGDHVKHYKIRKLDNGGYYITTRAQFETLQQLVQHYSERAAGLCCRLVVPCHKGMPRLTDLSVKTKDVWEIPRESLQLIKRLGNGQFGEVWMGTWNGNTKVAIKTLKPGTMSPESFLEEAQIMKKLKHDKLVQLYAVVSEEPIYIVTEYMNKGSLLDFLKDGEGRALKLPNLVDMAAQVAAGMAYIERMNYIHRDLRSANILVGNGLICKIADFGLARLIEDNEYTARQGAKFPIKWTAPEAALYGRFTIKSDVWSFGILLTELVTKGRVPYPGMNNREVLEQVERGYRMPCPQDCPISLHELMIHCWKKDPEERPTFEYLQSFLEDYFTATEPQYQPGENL

`CC(C)(C)c1ccc(S(=O)(=O)/C=C/C#N)cc1` [BAY-11-7085]: the IC50 result (in data set [1] (insect cells); on Cytochrome P450 2E1; in data set [2] (insect cells); in data set [3]; at B2 bradykinin receptor; in data set [4]) was “Not Active” throughout. In addition, in data set [5], the IC50 result is given as “Not Active”. Besides, the Ki result (at Cytochrome P450 2E1; in data set [3]; in data set [4]; in data set [5]) was “Not Active” in each case.
`CCc1oc2ccccc2c1C(=O)c1cc(Br)c(O)c(Br)c1` [BENZBROMARONE]: the IC50 result (in data set [1] (insect cells); against Cytochrome P450 2E1; in data set [2] (insect cells); in data set [3]; against B2 bradykinin receptor; in data set [4]) was “Not Active” throughout. Further, the IC50 entry in data set [5] is “Not Active”. The Ki result (on Cytochrome P450 2E1; in data set [3]; in data set [4]; in data set [5]) was “Not Active” each time.
With `O=c1cc(-c2ccccc2)oc2ccc3ccccc3c12` [BETA-NAPHTHOFLAVONE], the IC50 is 2.51 µM in data set [1] (read-out: IC50); “Not Active” against Cytochrome P450 2E1; “Not Active” in data set [2] (insect cells); “Not Active” in data set [3]; “Not Active” against B2 bradykinin receptor; “Not Active” in data set [4]. The IC50 entry in data set [5] is recorded as “Not Active”. Further, the Ki result (at Cytochrome P450 2E1; in data set [3]; in data set [4]; in data set [5]) was “Not Active” each time.
As for `CC(C)C[C@H]1C(=O)N2CCC[C@H]2[C@]2(O)O[C@](NC(=O)[C@@H]3C=C4c5cccc6[nH]c(Br)c(c56)C[C@H]4N(C)C3)(C(C)C)C(=O)N12` [BROMOCRIPTINE], the IC50 result (in data set [1] (insect cells); against Cytochrome P450 2E1; in data set [2] (insect cells); in data set [3]; against B2 bradykinin receptor; in data set [4]) was “Not Active” each time. For the same molecule, the IC50 result in data set [5] is “Not Active”. Further, the Ki result (at Cytochrome P450 2E1; in data set [3]; in data set [4]; in data set [5]) was “Not Active” each time.
For `CS(=O)(=O)OCCCCOS(C)(=O)=O` [BUSULFAN], the IC50 entry (in data set [1] (insect cells); against Cytochrome P450 2E1; in data set [2] (insect cells); in data set [3]; at B2 bradykinin receptor; in data set [4]) was “Not Active” each time. The IC50 result in data set [5] is “Not Active”. Moreover, the Ki result (on Cytochrome P450 2E1; in data set [3]; in data set [4]; in data set [5]) was “Not Active” in each case.
In the case of `O=C(/C=C/c1ccc(O)c(O)c1)OCCc1ccccc1` [CAFFEIC ACID PHENETHYL ESTER], the IC50 in data set [1] (read-out: IC50) was 4.21 µM; at Cytochrome P450 2E1, “Not Active”; in data set [2] (read-out: IC50) it was 2.89 µM; in data set [3], “Not Active”; against B2 bradykinin receptor, “Not Active”; in data set [4] it was “Not Active”. Moreover, the IC50 entry in data set [5] is recorded as “Not Active”. The Ki result (on Cytochrome P450 2E1; in data set [3]; in data set [4]; in data set [5]) was “Not Active” in each case.
Turning to `COc1cc(CNC(=O)CCCC/C=C/C(C)C)ccc1O` [CAPSAICIN], the IC50 entry (in data set [1] (insect cells); against Cytochrome P450 2E1; in data set [2] (insect cells); in data set [3]; on B2 bradykinin receptor; in data set [4]) was “Not Active” throughout. For the same molecule, in data set [5], the IC50 result was “Not Active”. Moreover, the Ki entry (on Cytochrome P450 2E1; in data set [3]; in data set [4]; in data set [5]) was “Not Active” throughout.
With `NC(=O)N1c2ccccc2C=Cc2ccccc21` [CARBAMAZEPINE], the IC50 entry (in data set [1] (insect cells); against Cytochrome P450 2E1; in data set [2] (insect cells); in data set [3]; at B2 bradykinin receptor; in data set [4]) was “Not Active” throughout. In addition, the IC50 result in data set [5] was “Not Active”. Moreover, the Ki result (at Cytochrome P450 2E1; in data set [3]; in data set [4]; in data set [5]) was “Not Active” in each case.
Take `CCOC(=O)n1ccn(C)c1=S` [CARBIMAZOLE]: the IC50 entry (in data set [1] (insect cells); against Cytochrome P450 2E1; in data set [3]; on B2 bradykinin receptor; in data set [4]; in data set [5]) was “Not Active” throughout. The Ki entry (at Cytochrome P450 2E1; in data set [2] (insect cells); in data set [3]; in data set [4]; in data set [5]) was “Not Active” in each case.
Turning to `Oc1ccccc1O` [CATECHOL], the IC50 is 17.4 µM in data set [1] (read-out: IC50); “Not Active” against Cytochrome P450 2E1; “Not Active” in data set [2] (insect cells); “Not Active” in data set [3]; “Not Active” against B2 bradykinin receptor; “Not Active” in data set [4]. Also, the IC50 entry in data set [5] is recorded as “Not Active”. The Ki entry (at Cytochrome P450 2E1; in data set [3]; in data set [4]; in data set [5]) was “Not Active” throughout.
In the case of `CO[C@@]1(NC(=O)CSCC#N)C(=O)N2C(C(=O)O)=C(CSc3nnnn3C)CS[C@@H]21` [CEFMETAZOLE], the IC50 result (in data set [1] (insect cells); against Cytochrome P450 2E1; in data set [2] (insect cells); in data set [3]; at B2 bradykinin receptor; in data set [4]) was “Not Active” each time. The IC50 entry in data set [5] is on record as “Not Active”. For the same molecule, the Ki result (on Cytochrome P450 2E1; in data set [3]; in data set [4]; in data set [5]) was “Not Active” throughout.
For the molecule `CN(C(=O)CCCOc1ccc2[nH]c(=O)ccc2c1)C1CCCCC1` [CILOSTAMIDE], the IC50 result in data set [1] (insect cells) is “Not Active”; against Cytochrome P450 2E1 it was “Not Active”; in data set [2] (insect cells), “Not Active”; in data set [3] (read-out: IC50) it was 0.055 µM; against B2 bradykinin receptor it was “Not Active”; in data set [4], “Not Active”. The IC50 result in data set [5] is reported as “Not Active”. For the same molecule, the Ki entry (at Cytochrome P450 2E1; in data set [4]; in data set [5]) was “Not Active” throughout.
Regarding `CC(C)(Oc1ccc(C2CC2(Cl)Cl)cc1)C(=O)O` (stereo unspecified) [CIPROFIBRATE], the IC50 entry (in data set [1] (insect cells); against Cytochrome P450 2E1; in data set [2] (insect cells); in data set [3]; at B2 bradykinin receptor; in data set [4]) was “Not Active” throughout. For the same molecule, the IC50 entry in data set [5] is recorded as “Not Active”. For the same molecule, the Ki result (on Cytochrome P450 2E1; in data set [3]; in data set [4]; in data set [5]) was “Not Active” each time.
`Nc1nc(Cl)nc2c1ncn2[C@H]1C[C@H](O)[C@@H](CO)O1` [CLADRIBINE]: the IC50 result (in data set [1] (insect cells); against Cytochrome P450 2E1; in data set [2] (insect cells); in data set [3]; against B2 bradykinin receptor; in data set [4]) was “Not Active” each time. Moreover, the IC50 result in data set [5] is “Not Active”. Moreover, the Ki entry (on Cytochrome P450 2E1; in data set [3]; in data set [4]; in data set [5]) was “Not Active” throughout.
With `CC[C@H]1OC(=O)[C@H](C)[C@@H](O[C@H]2C[C@@](C)(OC)[C@@H](O)[C@H](C)O2)[C@H](C)[C@@H](O[C@@H]2O[C@H](C)C[C@H](N(C)C)[C@H]2O)[C@](C)(OC)C[C@@H](C)C(=O)[C@H](C)[C@@H](O)[C@]1(C)O` [CLARITHROMYCIN], the IC50 result (in data set [1] (insect cells); against Cytochrome P450 2E1; in data set [2] (insect cells); in data set [3]; against B2 bradykinin receptor; in data set [4]) was “Not Active” throughout. Besides, the IC50 result in data set [5] was “Not Active”. The Ki result (on Cytochrome P450 2E1; in data set [3]; in data set [4]; in data set [5]) was “Not Active” each time.
As to `O=C(O)c1cc(=O)c2c(OCC(O)COc3cccc4oc(C(=O)O)cc(=O)c34)cccc2o1` [CROMOLYN], the IC50 result (in data set [1] (insect cells); against Cytochrome P450 2E1; in data set [2] (insect cells); in data set [3]; against B2 bradykinin receptor; in data set [4]) was “Not Active” in each case. The IC50 entry in data set [5] is recorded as “Not Active”. The Ki entry (on Cytochrome P450 2E1; in data set [3]; in data set [4]; in data set [5]) was “Not Active” each time.
In the case of `O=P1(N(CCCl)CCCl)NCCCO1` (stereo unspecified) [CYCLOPHOSPHAMIDE ANHYDROUS], the IC50 result (in data set [1] (insect cells); at Cytochrome P450 2E1; in data set [2] (insect cells); in data set [3]; against B2 bradykinin receptor; in data set [4]) was “Not Active” throughout. For the same molecule, in data set [5], the IC50 result is recorded as “Not Active”. Besides, the Ki entry (at Cytochrome P450 2E1; in data set [3]; in data set [4]; in data set [5]) was “Not Active” in each case.
